The values that follow come from patent publication US9227923B2, “Pesticidal carboxamides” (Bayer Intellectual Property GmbH, priority 2009, dated 2016).

One assay deals with Ctenocephalides felis. Put plainly: whole plant or invertebrate. It is filed as in vivo. Conditions: Ctenocephalides felis, in Bos taurus, 48 h, read-out: activity (mortality in %). Here is the method:
(§1) Solvent: dimethyl sulfoxide
Approximately 20 adult unfed (Ctenocepahlides felis) are placed in flea chambers. […] The blood chamber is heated to 37° C. whereas the flea chamber is kept at room temperature.

A further assay deals with Musca domestica. Nature of the assay: whole plant or invertebrate. Conditions: 48 h, read-out: activity (mortality in %). Here is the method:
as §1
Prior to the assay, a piece of kitchen sponge is soaked with a mixture of sugar and compound solution and placed into a container. 10 adults (Musca domestica) are placed into the container and closed with a perforated lid. After 2 days mortality in % is determined 100% means that all the flies have been killed; 0% means that none of the flies have been killed.

Another assay relates to Boophilus microplus. Nature of the assay: Boophilus microplus test (injection). It is filed as in vivo. Conditions: Rhipicephalus microplus, 168 h, read-out: activity (mortality in %; 100% means that all eggs are infertile). Here is the method:
as §1
Five adult engorged female ticks (Boophilus microplus) are injected with […] compound solution into the abdomen. Ticks are transferred into replica plates and incubated in a climate chamber for a period of time. Egg deposition of fertile eggs is monitored.
After 7 days mortality in % is determined. 100% means that all eggs are infertile; 0% means that all eggs are fertile. […]

Assay [1] concerns Two-Spotted Spider Mite (Tetranychus Urticae). Put plainly: Test against two-spotted spider mite (Tetranychus urticae), spray. The assay is classed as in vivo. Conditions: active compound concentration of 100 ppm; adult mites; after 7 days. An excerpt:
Solvent: 3 parts by weight of dimethylformamide
Emulsifier: 1 part by weight of polyoxyethylene alkyl phenyl ether

Assay [2] relates to Tobacco Cutworm (Spodoptera litura) Larvae. Put plainly: Test against tobacco cutworm (Spodoptera litura) larvae, leaf dip. The assay is classed as in vivo. As to conditions: Spodoptera litura, foliar, 168 h; active compound concentration of 100 ppm; third instar larvae; after 7 days; read-out: insecticidal activity. An outline of the steps: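 Sweet potato leaves were dipped in the test solution (DMF solvent, polyoxyethylene alkyl phenyl ether emulsifier), air-dried and offered to ten third-instar larvae per dish at 25 °C, with fresh leaves added on days 2 and 4. Mortality was counted at day 7 and expressed as % insecticidal activity (100% = all dead).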

Assay [3] has as its system Lucilia cuprina 1st instar larvae. Put plainly: whole plant or invertebrate. Conditions: Lucilia cuprina, 48 h, read-out: activity (percentage of larval mortality). It is filed as in vivo. Here is the method: species: Lucilia cuprina 1st instar larvae (age 24 hrs)
solvent: dimethyl sulfoxide
Serial dilutions are made to obtain the desired rates. Approximately 20 Lucilia cuprina 1st instar larvae are transferred into a test tube containing 1 cm^3 of minced horse meat and 0.5 ml aqueous dilution of test compound. After 48 hrs percentage of larval mortality are recorded. 100% efficacy=all larvae are killed, […].

Assay [4] has as its system Cucurbit Leaf Beetle (Aulacophora Femoralis). Nature of the assay: Test against cucurbit leaf beetle (Aulacophora femoralis), leaf dip. The assay is classed as in vivo. Conditions: Aulacophora, foliar, 168 h; active compound concentration of 100 ppm; second instar larvae; after 7 days; read-out: insecticidal activity. An outline of the steps: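 Cucumber leaves dipped in compound solution (DMF solvent, polyoxyethylene alkyl phenyl ether emulsifier), air-dried, and placed with five second-instar larvae in cups on sterilized soil at 25° C. Dead larvae counted after 7 days; activity expressed as percent larvae killed.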

For orientation: mortality means the percentage killed. In the case of `O=C(Nc1c(Br)cc(C(F)(C(F)(F)F)C(F)(F)F)cc1Br)c1ccc(-n2cncn2)cc1` [Compound 1-78, N-[2,6-dibromo-4-(1,1,1,2,3,3,3-heptafluoropropan-2-yl)-phenyl]-4-(1H-1,2,4-triazol-1-yl)benzamide], the mortality at 100 ppm (in the assay with Ctenocephalides felis; with Musca domestica; in assay [3]) was 100% each time. Further, in the assay on Boophilus microplus, the mortality at 0.02 mg was found to be 100%. Besides, the acaricidal activity in assay [1] was 100%. Moreover, the pest or weed control at 100 ppm in assay [2] and in assay [4] was 100% throughout.
For the compound `CCc1cc(C(F)(C(F)(F)F)C(F)(F)F)cc(C)c1NC(=O)c1ccc(-n2cncn2)c(C#N)c1` [Compound 1-49, 3-cyano-N-[2-ethyl-4-(1,1,1,2,3,3,3-heptafluoropropan-2-yl)-6-methylphenyl]-4-(1H-1,2,4-triazol-1-yl)benzamide], the mortality at 100 ppm was 95% in the assay on Ctenocephalides felis and 100% in assay [3]. Also, the mortality at 0.02 mg in the assay on Boophilus microplus amounted to 100%. In addition, the acaricidal activity in assay [1] was 100%. Further, the pest or weed control at 100 ppm in assay [2] and in assay [4] was 100% throughout.
Take `CCc1cc(C(F)(C(F)(F)F)C(F)(F)F)cc(C)c1NC(=O)c1ccc(-n2cncn2)cc1` [Compound 1-31, N-[2-ethyl-4-(1,1,1,2,3,3,3-heptafluoropropan-2-yl)-6-methylphenyl]-4-(1H-1,2,4-triazol-1-yl)benzamide]: the mortality at 100 ppm with Ctenocephalides felis came to 90%; in assay [3] it was 100%. Besides, the mortality at 0.02 mg in the assay on Boophilus microplus came to 100%. Moreover, the acaricidal activity in assay [1] was 100%. Also, the pest or weed control at 100 ppm in assay [2] and in assay [4] was 100% each time.
On to `CCc1cc(C(F)(C(F)(F)F)C(F)(F)F)cc(C)c1NC(=O)c1ccc(-n2cncn2)c([N+](=O)[O-])c1` [Compound 1-39, N-[2-ethyl-4-(1,1,1,2,3,3,3-heptafluoropropan-2-yl)-6-methyl-phenyl]-3-nitro-4-(1H-1,2,4-triazol-1-yl)benzamide], for which the mortality at 100 ppm (with Ctenocephalides felis; in the assay on Musca domestica; in assay [3]) was 100% throughout. Besides, the mortality at 0.02 mg in the assay with Boophilus microplus worked out at 100%. Further, in assay [1], the acaricidal activity was 100%. For the same compound, in assay [2], the pest or weed control at 100 ppm was found to be 100%.
With `CCc1cc(C(F)(C(F)(F)F)C(F)(F)F)cc(C)c1NC(=O)c1ccc(-n2cncn2)c(N)c1` [Compound 1-38, 3-amino-N-[2-ethyl-4-(1,1,1,2,3,3,3-heptafluoropropan-2-yl)-6-methylphenyl]-4-(1H-1,2,4-triazol-1-yl)benzamide], the mortality at 100 ppm (with Ctenocephalides felis; in assay [3]) was 100% in each case. Besides, the mortality at 0.02 mg in the assay with Boophilus microplus is 100%. Moreover, the pest or weed control at 100 ppm in assay [2] is 100%.
